We go through 1 compound from patent publication US20150374691A1, “METHODS AND MATERIALS FOR TREATING ORTHOSTATIC HYPOTENSION OR POSTURAL TACHYCARDIA SYNDROME” (Mayo Foundation for Medical Education and Research, priority 2009, published 2015).

Data set [1] relates to patients with myasthenic syndromes. The following applies: among 132 patients enrolled, cited from earlier work.
For data set [2], the system named is patient with Lambert-Eaton myasthenic syndrome who also suffered from orthostatic hypotension. Kind of data set: blood pressure and heart rate response to head-up tilt before and after 3,4-DAP. Conditions: one patient, after oral administration of 20 mg 3,4-DAP; before administration a significant drop was observed (FIG. 1). Type of data set: in vivo, human. As for the experimental part: FIG. 1 is a graph plotting the blood pressure and heart rate response to head-up tilt in a patient with orthostatic hypotension before (left) and after (right) oral administration of 20 mg of 3,4-DAP.
The effects of administering 3,4-DAP to a patient with orthostatic hypotension were studied. Briefly, the blood pressure and heart rate response to head-up tilt was studied in a patient with Lambert-Eaton myasthenic syndrome who also suffered from orthostatic hypotension before and after oral administration of 20 mg 3,4-DAP. Before administration of 3,4-DAP, a significant orthostatic blood pressure drop was observed after a head-up tilt (FIG. 1, left).

In the case of `Nc1ccncc1N` [3,4-DAP, 3,4-diaminopyridine], in data set [1] (after being on the medication for years, clear cause-effect relationship not established), the seizures entry is recorded as “two patients experienced a self-limited seizure”. Moreover, the “complications related to cardiac arrhythmias” value in data set [1] is on record as “no noted complications related to cardiac arrhythmias”. In addition, the “orthostatic blood pressure drop after a head-up tilt” value in data set [2] was “did not exhibit a significant orthostatic blood pressure drop”.
